Consider two molecules from paper PMC4694564 (Molecular pharmaceutics, 2015).

The target of data set [1] is T1, carboxylesterase 1 (CES1) (Homo sapiens, UniProt P23141).
T1 sequence (P23141 18-567): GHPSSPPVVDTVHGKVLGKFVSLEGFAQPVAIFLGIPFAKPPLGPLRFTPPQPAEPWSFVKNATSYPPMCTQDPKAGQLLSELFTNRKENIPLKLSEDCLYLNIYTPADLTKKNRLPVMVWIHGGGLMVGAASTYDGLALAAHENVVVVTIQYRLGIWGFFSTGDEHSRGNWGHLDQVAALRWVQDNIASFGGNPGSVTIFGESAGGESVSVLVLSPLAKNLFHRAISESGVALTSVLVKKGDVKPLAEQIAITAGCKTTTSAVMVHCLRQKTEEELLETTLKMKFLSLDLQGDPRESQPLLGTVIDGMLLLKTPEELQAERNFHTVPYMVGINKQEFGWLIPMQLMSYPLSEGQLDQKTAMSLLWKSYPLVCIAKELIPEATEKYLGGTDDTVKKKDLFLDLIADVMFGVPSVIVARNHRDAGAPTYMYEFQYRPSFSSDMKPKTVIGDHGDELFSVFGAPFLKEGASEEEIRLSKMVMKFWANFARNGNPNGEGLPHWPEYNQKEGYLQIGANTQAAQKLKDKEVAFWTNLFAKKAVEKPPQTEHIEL
Briefly: inhibition of recombinant human CES1. It counts as biochemical.

For data set [2], the target named is T2, carboxylesterase 2 (CES2) (Homo sapiens, UniProt O00748).
T2 sequence (O00748 27-559): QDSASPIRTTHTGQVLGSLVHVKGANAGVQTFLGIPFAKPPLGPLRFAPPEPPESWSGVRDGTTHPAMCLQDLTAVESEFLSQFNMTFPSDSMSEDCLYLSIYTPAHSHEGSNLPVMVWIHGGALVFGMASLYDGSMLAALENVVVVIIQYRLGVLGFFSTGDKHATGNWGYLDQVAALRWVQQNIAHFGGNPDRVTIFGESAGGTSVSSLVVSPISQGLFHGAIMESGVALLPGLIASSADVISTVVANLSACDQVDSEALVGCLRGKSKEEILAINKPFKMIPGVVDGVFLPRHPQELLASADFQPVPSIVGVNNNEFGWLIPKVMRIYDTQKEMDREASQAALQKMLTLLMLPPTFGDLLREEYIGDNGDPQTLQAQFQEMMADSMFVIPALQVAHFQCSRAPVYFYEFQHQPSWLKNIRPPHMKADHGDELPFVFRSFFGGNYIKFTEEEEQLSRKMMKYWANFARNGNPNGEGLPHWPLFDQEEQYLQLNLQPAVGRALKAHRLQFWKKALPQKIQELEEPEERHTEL
Briefly: inhibition of recombinant human CES2. It counts as biochemical.

Substrate in the data set “purified protein”: CCOC(=O)C1=C[C@@H](OC(CC)CC)[C@H](NC(C)=O)[C@@H](N)C1
Nature of the data set: purified protein. Type of data set: biochemical, Homo sapiens.

On to `Cc1cc(OC(=O)NC2CCCCC2)ccc1F` [WWL50, 4-fluoro-3-methylphenyl cyclohexylcarbamate], for which the IC50 – broadly, the concentration that gives 50% inhibition – was found to be 4.3 ± 0.6 nM in data set [1] and 429 ± 2.6 nM in data set [2].

B1: carboxylesterase 1 (CES1) (Homo sapiens) (protein)
chain: T1 sequence (P23141 18-567)
On to B1, for which the Michaelis constant (Km) (commonly the substrate concentration at which the rate is half of its maximum) in the data set “purified protein” stood at 2.9 mM.
